According to patent US20200061007A1, “CANCER STEM CELL PROLIFERATION INHIBITOR” (NATIONAL INSTITUTE OF ADVANCED INDUSTRIAL SCIENCE AND …, priority 2014, published 2020):

Legend:
[1] = tested on: human prostate cancer cell line LNCaP; test: Growth inhibition of LNCaP in vitro; assay type: cell-based; conditions: 96 hours of exposure, RPMI1640 with 10% FBS
Experimental: A human prostate cancer cell line LNCaP, containing cells positive for cancer stem cell markers, was cultured in RPMI1640 medium supplemented with 10% FBS, and the growth inhibitory action by the combination of Am80 and 5-AZ was studied. […] Thus, in order to study the growth inhibitory action, Am80 was used within the concentration range of 0.125 μM to 1 μM with a common ratio of 2, and 5-AZ was used within the concentration range of 1.56 μM to 12.5 μM with a common ratio of 2. In cases of use of these agents in combination, the growth inhibitory action was studied using these concentrations.

[2] = tested on: Human Leukemia Cell Line Kasumi-1; test: Growth inhibition of Kasumi-1, isobologram; assay type: cell-based; conditions: Kasumi-1, RPMI1640 with 20% FBS
Experimental: A human leukemia cell line Kasummi-1, containing cells positive for cancer stem cell markers, was cultured in RPMI1640 medium supplemented with 20% FBS, and the growth inhibitory action by the combination of Am80 and 5-AZ was studied using Isobologram. […] These concentrations were taken as 1.0, and the points corresponding to 1.0 in the two axes were connected to each other via a straight line. In cases where the ratio observed for the combination effect is on the line, the effect is additive, and, in cases where the ratio is below the line, the effect is synergistic.

[3] = tested on: human breast cancer cell line MCF-7; test: Growth inhibition of MCF-7 in vitro; assay type: cell-based; conditions: MCF-7, 96 hours of exposure, RPMI1640 with 2% FBS
Experimental: A human breast cancer cell line MCF-7, containing cells positive for cancer stem cell markers, was cultured in RPMI1640 medium supplemented with 2% FBS, and the growth inhibitory action by the combination of Am80 and 5-AZ was studied. The IC50 values of the agents determined by 96 hours of the exposure were 1 μM and 20 μM, respectively. Thus, in order to study the growth inhibitory action, Am80 was used within the concentration range of 0.125 μM to 1 μM with a common ratio of 2, and 5-AZ was used within the concentration range of 2.5 μM to 20 μM with a common ratio of 2. In cases of use of these agents in combination, the growth inhibitory action was studied using these concentrations.

[4] = tested on: human prostate cancer cell line LNCaP; test: Tumor volume, LNCaP/nude mice; assay type: in vivo
Experimental: (§1) A tumor piece of a human prostate cancer cell line LNCaP containing cells positive for cancer stem cell markers was subcutaneously transplanted to the dorsal part of each of 6-week-old female BALB/cAJc1-nu nude mice (4 mice/group) using a trocar needle. At the time when the tumor volume reached 100 to 200 mm^3, the administration was started. Am80 was orally administered once a day at a dose of 1 mg/kg for 21 continuous days, and DXL was intravenously administered at a dose of 5 mg/kg from Day 1, 3 times at intervals of 4 days. In the combination group, the agents were administered at the same doses as, and by the same administration methods as, those in the cases of administration of each single agent. Measurement of the tumor diameter was carried out until the next day of the completion of the administration (Day 22). The longitudinal diameter and the transverse diameter of the tumor were measured using a caliper, and the tumor volume (mm^3) was determined according to the following formula: longitudinal diameter×transverse diameter^2/2. In the control group, physiological saline was intraperitoneally administered from Day 1, 3 times at intervals of 4 days.

[5] = tested on: human pancreatic cancer cells MIA-Paca2; test: Tumor volume, MIA-Paca2/nude mice; assay type: in vivo
Experimental: A tumor piece of human pancreatic cancer cells MIA-Paca2 containing cells positive for cancer stem cell markers was subcutaneously transplanted to the dorsal part of each of 6-week-old female BALB/cAJc1-nu nude mice (4 mice/group, 5 mice only for the control group) using a trocar needle. At the time when the tumor volume reached 100 to 200 mm^3, the administration was started. Am80 was orally administered once a day at a dose of 2 mg/kg for 21 continuous days, and DXL was intravenously administered at a dose of 5 mg/kg from Day 1, 3 times at intervals of 4 days. In the combination group, the agents were administered at the same doses as, and by the same administration methods as, those in the cases of administration of each single agent. Measurement of the tumor diameter was carried out until the next day of the completion of the administration (Day 22). Based on the measured values of the longitudinal diameter and the transverse diameter, the tumor volume (mm^3) was determined according to the following formula: longitudinal diameter×transverse diameter^2/2. In the control group, physiological saline was intraperitoneally administered from Day 1, 3 times at intervals of 4 days.

[6] = tested on: human breast cancer cell line MCF-7; test: Tumor volume, MCF-7/nude mice; assay type: in vivo
Experimental: as §1, with “breast” for “prostate”, “MCF-7” for “LNCaP”, “(5” for “(4”, “3.5” for “5”

## Nc1ncn([C@@H]2O[C@H](CO)[C@@H](O)[C@H]2O)c(=O)n1 [5-AZ, Azacytidine]
[1]
  IC50: 25 µM
[2]
  IC50: 8.4 µM
[3]
  IC50: 20 µM

## CC(=O)O[C@@]12CO[C@@H]1C[C@H](O)[C@@]1(C)C(=O)[C@H](O)C3=C(C)[C@@H](OC(=O)[C@H](O)[C@@H](NC(=O)OC(C)(C)C)c4ccccc4)C[C@@](O)([C@@H](OC(=O)c4ccccc4)[C@H]21)C3(C)C [DXL, Docetaxel]
[4]; Am80 1 mg/kg oral daily 21 days, DXL 5 mg/kg i.v. 3 times at intervals of 4 days, Day 1
  tumor volume Day 1: 126.7 mm^3
[4]; Am80 1 mg/kg oral daily, DXL 5 mg/kg i.v., Day 5
  tumor volume Day 5: 111.3 mm^3
[4]; Am80 1 mg/kg oral daily, DXL 5 mg/kg i.v., Day 9
  tumor volume Day 9: 90.7 mm^3
[4]; Am80 1 mg/kg oral daily, DXL 5 mg/kg i.v., Day 13
  tumor volume Day 13: 73.7 mm^3
[4]; Am80 1 mg/kg oral daily, DXL 5 mg/kg i.v., Day 17
  tumor volume Day 17: 72.5 mm^3
[4]; Am80 1 mg/kg oral daily, DXL 5 mg/kg i.v., Day 22
  tumor volume Day 22: 70.2 mm^3
[5]; Am80 2 mg/kg oral daily 21 days, DXL 5 mg/kg i.v. 3 times at intervals of 4 days, Day 1
  tumor volume Day 1: 136.7 mm^3
[5]; Am80 2 mg/kg oral daily, DXL 5 mg/kg i.v., Day 5
  tumor volume Day 5: 151.3 mm^3
[5]; Am80 2 mg/kg oral daily, DXL 5 mg/kg i.v., Day 9
  tumor volume Day 9: 135.7 mm^3
[5]; Am80 2 mg/kg oral daily, DXL 5 mg/kg i.v., Day 13
  tumor volume Day 13: 93.7 mm^3
[5]; Am80 2 mg/kg oral daily, DXL 5 mg/kg i.v., Day 17
  tumor volume Day 17: 76.3 mm^3
[5]; Am80 2 mg/kg oral daily, DXL 5 mg/kg i.v., Day 22
  tumor volume Day 22: 77.3 mm^3
[6]; Am80 1 mg/kg oral daily 21 days, DXL 3.5 mg/kg i.v. 3 times at intervals of 4 days, Day 1
  tumor volume Day 1: 143.5 mm^3
[6]; Am80 1 mg/kg oral daily, DXL 3.5 mg/kg i.v., Day 5
  tumor volume Day 5: 121.5 mm^3
[6]; Am80 1 mg/kg oral daily, DXL 3.5 mg/kg i.v., Day 9
  tumor volume Day 9: 110.0 mm^3
[6]; Am80 1 mg/kg oral daily, DXL 3.5 mg/kg i.v., Day 13
  tumor volume Day 13: 83.3 mm^3
[6]; Am80 1 mg/kg oral daily, DXL 3.5 mg/kg i.v., Day 17
  tumor volume Day 17: 66.5 mm^3
[6]; Am80 1 mg/kg oral daily, DXL 3.5 mg/kg i.v., Day 22
  tumor volume Day 22: 71.3 mm^3
